Measurements as given in patent US20250214990A1, “DIACYLGLYCEROL KINASE (DGK) ALPHA INHIBITORS AND USES THEREOF” (Insilico Medicine IP Limited, priority 2022, published 2025).

Biological target: T1, DGKA (Homo sapiens, UniProt P23743)
T1 construct: purchased SignalChem D21-10BG
Assay: DGKA Inhibition ADP-Glo Assay
Format: biochemical
Conditions: 40 μM ATP
Experimental: The DGKA inhibition reactions were performed using ADP-Glo assay. The reactions were carried out in 50 mM HEPES, 100 mM NaCl, 10 mM MgCl2, 1 mM CaCl2, 0.005% TritonX-100 and 1 mM DTT as working solution (pH=7.5). 30 nL DMSO solution of each test compound (Top concentration […] with 10 point, 4-fold dilution series for each compound) were transferred to 384 well plate by Echo and 5 μL DGKA (SignalChem, D21-10BG) enzyme working solution at 2× final reaction concentration was added to each well. After incubated at 25° C. for 15 minutes, 5 μL substrate working solution contain 40 μM ATP (Promega, V915B) and 200 µM DLG (SignalChem, D430-59) were added to initiate reaction. After enzymatic reaction at 25° C. for 60 min, ADP Glo assay reagents (Promega, V9102) were added and luminescence was recorded using an EnVision following the instruction of manual. […] The IC50 value was calculated via a regression analysis of the inhibition rate.

T1 sequence (P23743 whole entry): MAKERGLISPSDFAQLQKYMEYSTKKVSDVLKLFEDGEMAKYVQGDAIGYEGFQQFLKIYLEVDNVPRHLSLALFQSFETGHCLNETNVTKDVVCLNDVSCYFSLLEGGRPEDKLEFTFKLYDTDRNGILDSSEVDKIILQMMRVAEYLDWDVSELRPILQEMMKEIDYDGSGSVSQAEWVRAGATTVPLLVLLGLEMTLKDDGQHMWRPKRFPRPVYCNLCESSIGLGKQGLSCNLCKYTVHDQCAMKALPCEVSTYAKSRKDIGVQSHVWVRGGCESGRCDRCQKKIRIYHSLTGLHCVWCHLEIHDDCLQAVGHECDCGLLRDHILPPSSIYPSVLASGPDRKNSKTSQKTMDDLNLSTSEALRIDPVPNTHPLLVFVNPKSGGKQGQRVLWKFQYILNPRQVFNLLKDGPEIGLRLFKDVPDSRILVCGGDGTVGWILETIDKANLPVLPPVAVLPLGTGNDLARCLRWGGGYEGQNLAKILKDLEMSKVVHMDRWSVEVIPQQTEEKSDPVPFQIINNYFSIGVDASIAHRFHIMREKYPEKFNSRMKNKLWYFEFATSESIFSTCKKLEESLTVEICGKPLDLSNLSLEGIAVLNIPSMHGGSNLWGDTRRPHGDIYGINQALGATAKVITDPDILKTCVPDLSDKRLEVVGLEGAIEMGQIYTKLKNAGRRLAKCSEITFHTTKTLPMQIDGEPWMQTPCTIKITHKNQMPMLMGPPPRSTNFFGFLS

SMILES | IC50 [nM]
Cn1c(=O)nc(N2CCOCc3c(C#CC4(C(F)(F)F)CC4)cccc32)c2cc(C#N)c(OC3CCOCC3)cc21 [Example 26, 1-methyl-2-oxo-7-((tetrahydro-2H-pyran-4-yl)oxy)-4-(6-((1-(trifluoromethyl)cyclopropyl)ethynyl)-2,3-dihydrobenzo[e][1,4]oxazepin-1(5H)-yl)-1,2-dihydroquinazoline-6-carbonitrile] | < 1
Cn1c(=O)nc(N2CCOCc3c(C#CC4(C(F)(F)F)CC4)cccc32)c2cc(C#N)ccc21 [Example 6, 1-methyl-2-oxo-4-(6-((1-(trifluoromethyl)cyclopropyl)ethynyl)-2,3-dihydrobenzo[e][1,4]oxazepin-1(5H)-yl)-1,2-dihydroquinazoline-6-carbonitrile] | < 1
Cc1cccc2c1COCCN2c1nc(=O)n(C)c2cc(OCCO)c(Cl)cc12 [Example 38, 6-chloro-7-(2-hydroxyethoxy)-1-methyl-4-(6-methyl-2,3-dihydrobenzo[e][1,4]oxazepin-1(5H)-yl)quinazolin-2(11H)-one] | 1 to 10
Cn1c(=O)nc(N2CCOCc3c(C#CC4(C(F)(F)F)CC4)cccc32)c2nc(Cl)ccc21 [Example 7, 6-chloro-1-methyl-4-(6-((1-(trifluoromethyl)cyclopropyl)ethynyl)-2,3-dihydrobenzol[e][1,4]oxazepin-1(5H)-yl)pyrido[3,2-d]pyrimidin-2(1H)-one] | < 1
COCCOc1cc2c(cc1C#N)c(N1CCOCc3c(C#CC4(C(F)(F)F)CC4)cccc31)nc(=O)n2C [Example 18, 7-(2-methoxyethoxy)-1-methyl-2-oxo-4-(6-((1-(trifluoromethyl)cyclopropyl)ethynyl)-2,3-dihydrobenzo[e][1,4]oxazepin-1(5H)-yl)-1,2-dihydroquinazoline-6-carbonitrile] | < 1
C#Cc1cccc2c1COCCN2c1nc(=O)n(C)c2cc(OCCO)c(Cl)cc12 [Example 39, 6-chloro-4-(6-ethynyl-2,3-dihydrobenzo[e][1,4]oxazepin-1(5H)-yl)-7-(2-hydroxyethoxy)-1-methylquinazolin-2(1H)-one] | < 1
Cn1c(=O)nc(N2CCOCc3ccccc32)c2cc(Cl)c(OCCO)cc21 [Example 36, 6-chloro-4-(2,3-dihydrobenzo[e][1,4]oxazepin-1(5H)-yl)-7-(2-hydroxyethoxy)-1-methylquinazolin-2(1H)-one] | 1 to 10
Cn1c(=O)nc(N2CCOCc3c(C#CC4(C(F)(F)F)CC4)cccc32)c2cc(Cl)c(OCCCO)cc21 [Example 27, 6-chloro-7-(3-hydroxypropoxy)-1-methyl-4-(6-((1-(trifluoromethyl)cyclopropyl)ethynyl)-2,3-dihydrobenzo[e][1,4]oxazepin-1(5H)-yl)quinazolin-2(1H)-one] | < 1
Cn1c(=O)nc(N2CCOCc3c(C#CC4(C(F)(F)F)CC4)cccc32)c2cc(C#N)c(NCCO)cc21 [Example 16, 7-((2-hydroxyethyl)amino)-1-methyl-2-oxo-4-(6-((1-(trifluoromethyl)cyclopropyl)ethynyl)-2,3-dihydrobenzo[e][1,4]oxazepin-1(5H)-yl)-1,2-dihydroquinazoline-6-carbonitrile] | < 1
CCc1cccc2c1COCCN2c1nc(=O)n(C)c2cc(OCCO)c(C#N)cc12 [Example 45, 4-(6-ethyl-2,3-dihydrobenzo[e][1,4]oxazepin-1(5H)-yl)-7-(2-hydroxyethoxy)-1-methyl-2-oxo-1,2-dihydroquinazoline-6-carbonitrile] | 1 to 10
Cn1c(=O)nc(N2CCOCc3c(C#CC4(C(F)(F)F)CC4)cccc32)c2cc(C#N)c(OCCCO)cc21 [Example 28, 7-(3-hydroxypropoxy)-1-methyl-2-oxo-4-(6-((1-(trifluoromethyl)cyclopropyl)ethynyl)-2,3-dihydrobenzo[e][1,4]oxazepin-1(5H)-yl)-1,2-dihydroquinazoline-6-carbonitrile] | < 1
Cn1c(=O)nc(N2CCOCc3c(C#CC4(C(F)(F)F)CC4)ccnc32)c2cc(Cl)c(OCCO)cc21 [Example 30, 6-chloro-7-(2-hydroxyethoxy)-1-methyl-4-(6-((1-(trifluoromethyl)cyclopropyl)ethynyl)-2,3-dihydropyrido[2,3-e][1,4]oxazepin-1(5H)-yl)quinazolin-2(1H)-one] | < 1
Cn1c(=O)nc(N2CCOCc3c(C#CC4(C)CC4)cccc32)c2cc(Cl)c(OCCO)cc21 [Example 29, 6-chloro-7-(2-hydroxyethoxy)-1-methyl-4-(6-((1-methylcyclopropyl)ethynyl)-2,3-dihydrobenzo[e][1,4]oxazepin-1(5H)-yl)quinazolin-2(11H)-one] | < 1
CN1CCC(Oc2cc3c(cc2Cl)c(N2CCOCc4c(C#CC5(C(F)(F)F)CC5)cccc42)nc(=O)n3C)C1 (stereo not drawn) [Example 35, 6-chloro-1-methyl-7-((1-methylpyrrolidin-3-yl)oxy)-4-(6-((1-(trifluoromethyl)cyclopropyl)ethynyl)-2,3-dihydrobenzo[e][1,4]oxazepin-1(5H)-yl)quinazolin-2(1H)-one] | 1 to 10
Cn1c(=O)nc(N2CCOCc3c(C#CC4(C(F)(F)F)CC4)cccc32)c2cc(Cl)c(O[C@@H]3CCOC3)cc21 [Example 22, (R)-6-chloro-1-methyl-7-((tetrahydrofuran-3-yl)oxy)-4-(6-((1-(trifluoromethyl)cyclopropyl)ethynyl)-2,3-dihydrobenzo[e][1,4]oxazepin-1(5H)-yl)quinazolin-2(1H)-one] | < 1

Continued, values first:

IC50 [nM] | SMILES
< 1 | Cn1c(=O)nc(N2CCOCc3c(C#CC4(C(F)(F)F)CC4)cncc32)c2cc(Cl)c(OCCO)cc21 [Example 31, 6-chloro-7-(2-hydroxyethoxy)-1-methyl-4-(6-((1-(trifluoromethyl)cyclopropyl)ethynyl)-2,3-dihydropyrido[3,4-e][1,4]oxazepin-1(5H)-yl)quinazolin-2(1H)-one]
< 1 | Cn1c(=O)nc(N2CCOCc3c(C#CC4(C(F)(F)F)CC4)cccc32)c2nc(C#N)ccc21 [Example 8]
< 1 | Cn1c(=O)nc(N2CCOCc3c(N4CCCC4)cccc32)c2cc(C#N)c(OCCO)cc21 [Example 46, 7-(2-hydroxyethoxy)-1-methyl-2-oxo-4-(6-(pyrrolidin-1-yl)-2,3-dihydrobenzo[e][1,4]oxazepin-1(5H)-yl)-1,2-dihydroquinazoline-6-carbonitrile]
< 1 | Cn1c(=O)nc(N2CCOCc3c(C#CC4CC4)cccc32)c2cc(C#N)c(OCCO)cc21 [Example 47, 4-(6-(cyclopropylethynyl)-2,3-dihydrobenzo[e][1,4]oxazepin-1(5H)-yl)-7-(2-hydroxyethoxy)-1-methyl-2-oxo-1,2-dihydroquinazoline-6-carbonitrile]
< 1 | Cn1c(=O)nc(N2CCOCc3c(C#CC4(C(F)(F)F)CC4)cccc32)c2cc(C#N)c(O[C@@H]3CCOC3)cc21 [Example 24, (R)-1-methyl-2-oxo-7-((tetrahydrofuran-3-yl)oxy)-4-(6-((1-(trifluoromethyl)cyclopropyl)ethynyl)-2,3-dihydrobenzo[e][1,4]oxazepin-1(5H)-yl)-1,2-dihydroquinazoline-6-carbonitrile]
< 1 | Cn1c(=O)cc(N2CCOCc3c(C#CC4(C(F)(F)F)CC4)cccc32)c2nc(C#N)ccc21 [Example 2, 5-methyl-6-oxo-8-(6-((1-(trifluoromethyl)cyclopropyl)ethynyl)-2,3-dihydrobenzo[e][1,4]oxazepin-1(5H)-yl)-5,6-dihydro-1,5-naphthyridine-2-carbonitrile]
< 1 | Cn1c(=O)nc(N2CCOCc3c(C#CC4(C(F)(F)F)CC4)cccc32)c2cc(C#N)c(O[C@H]3CCOC3)cc21 [Example 23, (S)-1-methyl-2-oxo-7-((tetrahydrofuran-3-yl)oxy)-4-(6-((1-(trifluoromethyl)cyclopropyl)ethynyl)-2,3-dihydrobenzo[e][1,4]oxazepin-1(5H)-yl)-1,2-dihydroquinazoline-6-carbonitrile]
< 1 | CC#Cc1cccc2c1COCCN2c1nc(=O)n(C)c2cc(OCCO)c(Cl)cc12 [Example 40, 6-chloro-7-(2-hydroxyethoxy)-1-methyl-4-(6-(prop-1-yn-1-yl)-2,3-dihydrobenzo[e][1,4]oxazepin-1(5H)-yl)quinazolin-2(1H)-one]
1 to 10 | COc1cccc2c1COCCN2c1nc(=O)n(C)c2cc(OCCO)c(Cl)cc12 [Example 42, 6-chloro-7-(2-hydroxyethoxy)-4-(6-methoxy-2,3-dihydrobenzo[e][1,4]oxazepin-1(5H)-yl)-1-methylquinazolin-2(1H)-one]
< 1 | Cn1c(=O)nc(N2CCOCc3c(C#CC4(C(F)(F)F)CC4)cccc32)c2cc(Cl)c(O[C@H]3CCOC3)cc21 [Example 21, (S)-6-chloro-1-methyl-7-((tetrahydrofuran-3-yl)oxy)-4-(6-((1-(trifluoromethyl)cyclopropyl)ethynyl)-2,3-dihydrobenzo[e][1,4]oxazepin-1(5H)-yl)quinazolin-2(1H)-one]
1 to 10 | Cn1c(=O)nc(N2CCOCc3c(C4CC4)cccc32)c2cc(Cl)c(OCCO)cc21 [Example 37, 6-chloro-4-(6-cyclopropyl-2,3-dihydrobenzo[e][1,4]oxazepin-1(5H)-yl)-7-(2-hydroxyethoxy)-1-methylquinazolin-2(1H)-one]
< 1 | Cn1c(=O)cc(N2CCOCc3c(C#CC4(C(F)(F)F)CC4)cccc32)c2nc(Cl)ccc21 [Example 1, 6-chloro-1-methyl-4-(6-((1-(trifluoromethyl)cyclopropyl)ethynyl)-2,3-dihydrobenzo[e][1,4]oxazepin-1(5H)-yl)-1,5-naphthyridin-2(1H)-one]
